Measurements as given in patent publication US4849207A, “Porphyrin derivatives” (Nihon Medi-Physics Co., Ltd., priority 1985, dated 1989).
Like-named read-outs stand apart in the source and are kept apart here.

What was measured:
tumor [1] = assay: Distribution in cancer-bearing and inflammation-induced hamsters, tumor to tissue
Experimental: (§1) Scintigraphy was obtained 72 and 96 hours after the administration by the use of a gamma-camera equipped with a medium energy high resolution type collimator.

pancreatic cancer [2] = assay: Scintigraphy in cancer-bearing hamster; format: in vivo; conditions: 300 μCi i.v., 72 and 96 hours after administration
Experimental: as §1

[3] = test system: inflammation (croton oil induced); assay: Distribution in inflammation-induced rats, inflammation to tissue; format: in vivo, SD rats; conditions: for Inflammation to tissue concentration ratio: Blood / Inflammation to tissue concentration ratio: Heart / Inflammation to tissue concentration ratio: Kidney / Inflammation to tissue concentration ratio: Liver / Inflammation to tissue concentration ratio: Lung / Inflammation to tissue concentration ratio: Muscle / Inflammation to tissue concentration ratio: Spleen: SD rat, 72 hour post-injection, mean and s.d. for 3 animals
Experimental: SD rats of about 200 grams in bodyweight received croton oil (0.1 ml) at the right hind leg subcutaneously to induce inflammation. […] The radioactivity level ratio between the inflamation and each tissue was determined.

pancreatic cancer [4] = assay: Distribution of a radioactive diagnostic agent in cancer-bearing hamster (cancer/organ radioactivity level ratio); conditions: 300 μCi i.v., 96 hours after administration
Experimental: With lapse of time, the animals were sacrificed, and the organs were extracted and subjected to measurement of radioactivity and weight, from which the radioactivity level ratio between the cancer and each organ was determined.
With lapse of time, the animals were sacrificed, and the ogans were extracted and subjected to measurement of radioactivity and weight, from which the radioactivity level ratio between the cancer and each organ was determined.

[5] = test system: inflammation (turpentine oil induced); assay: Distribution in cancer-bearing and inflammation-induced hamsters, inflammation to tissue; conditions: 72 hour post-injection
Experimental: as §1

[6] = test system: cancer cells of the pancreas; assay: Laser irradiation to an extracted organ (excited fluorescent spectrum); format: in vivo, golden hamsters; conditions: golden hamster, 5 mg i.v., after 24 hours
Experimental: Laser irradiation to an extracted organ (excited fluorescent spectrum):
To each of golden hamsters (five animals being grouped) transplaned with nitrosoamine-induced cancer cells of the pancreas, DTPA-10EG PPB-Me (5 mg) diluted with 0.1M citrate buffer (1 ml) was administered intravenously 14 to 21 days after the transplantation, and cancer cells and other organs were extracted. To each of the organs as extracted, N2 -pulsed laser (N2 337 nm, 2 ns 400-1000 nm) was irradiated, and excited fluorescent spectrum was measured after 24 hours. Taking the peak wavelength of NADH at 470 nm as the standard (i.e. 1), the wavelength at 600 to 900 nm was calculated. The results are shown in Table 1, from which it is understood that a porphyrin-related substance has a remarkably selective affinity to cancer cells.

tumor [7] = conditions: hamster, in vivo, 4320 min
Experimental: as §1

[8] = test system: inflammation (turpentine oil induced); conditions: hamster, in vivo, 4320 min
Experimental: as §1

[9] = 72 hour post-injection, mean and s.d. for 3 animals, or mean for 2 animals
[10] = hamster, mean and s.d. for 3 animals, or mean for 2 animals

## 2-[1-(^111 In-diethylenetriamine-tetraacetic acid-acetyloxyethane)oxyethyl]-4-[1-(2-hydroxyethyl)oxyethyl] Ga-deuteroporphyrin [^111 In--monoDTPA--EG Ga--DP]
Tumor [1]; 72 hour post-injection
  imaging of tumor compared with ^67 Ga citrate (in words): superior to ^67 Ga citrate
Tumor [1]; [9]
  Tumor to tissue concentration ratio: Blood: 55.75 ± 10.61
  Tumor to tissue concentration ratio: Heart: 1.14 ± 0.28
  Tumor to tissue concentration ratio: Kidney: 0.79 ± 0.08
  Tumor to tissue concentration ratio: Liver: 0.21 ± 0.06
  Tumor to tissue concentration ratio: Lung: 0.52 ± 0.33
  Tumor to tissue concentration ratio: Muscle: 22.16 ± 6.53
  Tumor to tissue concentration ratio: Spleen: 0.16 ± 0.03
Tumor [1]; from Table 5, compared with each other
  affinities to tumor and inflammation (in words): nearly equal in affinities to tumor and inflammation
Pancreatic cancer [2]
  scintigraphic imaging of the locus of cancer: the locus of cancer could be clearly imaged at both stages
[3]
  Inflammation to tissue concentration ratio: Blood: 185.25 ± 82.70
  Inflammation to tissue concentration ratio: Heart: 2.40 ± 0.63
  Inflammation to tissue concentration ratio: Kidney: 1.42 ± 0.35
  Inflammation to tissue concentration ratio: Liver: 0.14 ± 0.04
  Inflammation to tissue concentration ratio: Lung: 1.43 ± 0.32
  Inflammation to tissue concentration ratio: Muscle: 19.23 ± 10.45
  Inflammation to tissue concentration ratio: Spleen: 0.18 ± 0.03
[3]; from Table 6
  accumulation in inflammation compared with ^67 Ga citrate (in words): much lesser accumulation in inflammation than ^67 Ga citrate
Pancreatic cancer [4]
  Cancer/Blood radioactivity level ratio: 61.89
  Cancer/Heart radioactivity level ratio: 3.41
  Cancer/Kidney radioactivity level ratio: 0.91
  Cancer/Liver radioactivity level ratio: 0.53
  Cancer/Lung radioactivity level ratio: 1.33
  Cancer/Spleen radioactivity level ratio: 0.43
[5]
  imaging of inflammation compared with ^67 Ga citrate (in words): inferior to ^67 Ga citrate
[5]; [10]
  Inflammation to tissue concentration ratio: Blood: 22.96 ± 9.56
  Inflammation to tissue concentration ratio: Heart: 0.49 ± 0.26
  Inflammation to tissue concentration ratio: Kidney: 0.33 ± 0.13
  Inflammation to tissue concentration ratio: Liver: 0.21 ± 0.16
  Inflammation to tissue concentration ratio: Lung: 0.21 ± 0.14
  Inflammation to tissue concentration ratio: Muscle: 8.71 ± 2.98
  Inflammation to tissue concentration ratio: Spleen: 0.06 ± 0.01

## C=Cc1c(C)c2cc3nc(c4c5[nH]c(cc6nc(cc1[nH]2)C(C)=C6CC)c(C)c5C(=O)C4C(=O)OCCOC(=O)CN(CCN(CCN(CC(=O)O)CC(=O)O)CC(=O)O)CC(=O)O)C(CCC(=O)O)C3C (centres unmarked) [DTPA--10EG PPB, Ethylene glycol mono-diethylenetriamine-tetraacetic acid-acetate mono-10b-pheophorbate]
[6]
  excited fluorescence at 600 to 900 nm relative to NADH peak at 470 nm (=1): Cancer: 1.20
  excited fluorescence at 600 to 900 nm relative to NADH peak at 470 nm (=1): Kidney: 0.43
  excited fluorescence at 600 to 900 nm relative to NADH peak at 470 nm (=1): Liver: 0.77
  excited fluorescence at 600 to 900 nm relative to NADH peak at 470 nm (=1): Lung: 0.45
  excited fluorescence at 600 to 900 nm relative to NADH peak at 470 nm (=1): Serum: 0.52

## C=Cc1c(C)c2cc3nc(c4c5[nH]c(cc6nc(cc1[nH]2)C(C)=C6CC)c(C)c5C(=O)C4C(=O)OCCOC(=O)CN(CCN(CCN(CC(=O)O)CC(=O)O)CC(=O)O)CC(=O)O)C(CCC(=O)OC)C3C (centres unmarked) [DTPA--10EG PPB--Me, Ethylene glycol monodiethylenetriaminetetraacetic acid-acetate mono-10b-methylpheophorbate]
[6]
  excited fluorescence at 600 to 900 nm relative to NADH peak at 470 nm (=1): Cancer: 2.73
  excited fluorescence at 600 to 900 nm relative to NADH peak at 470 nm (=1): Kidney: 0.37
  excited fluorescence at 600 to 900 nm relative to NADH peak at 470 nm (=1): Liver: 0.69
  excited fluorescence at 600 to 900 nm relative to NADH peak at 470 nm (=1): Lung: 0.47
  excited fluorescence at 600 to 900 nm relative to NADH peak at 470 nm (=1): Serum: 0.53

## O=C([O-])CC(O)(CC(=O)[O-])C(=O)[O-].[67Ga+3] [Gallium (^67 Ga) citrate, gallium (^67 Ga) citrate]
Tumor [7]
  Tumor to tissue concentration ratio: Blood: 9.89
  Tumor to tissue concentration ratio: Heart: 1.73
  Tumor to tissue concentration ratio: Kidney: 0.20
  Tumor to tissue concentration ratio: Liver: 0.18
  Tumor to tissue concentration ratio: Lung: 1.26
  Tumor to tissue concentration ratio: Muscle: 14.20
  Tumor to tissue concentration ratio: Spleen: 0.39
[8]
  Inflammation to tissue concentration ratio: Blood: 17.55
  Inflammation to tissue concentration ratio: Heart: 3.10
  Inflammation to tissue concentration ratio: Kidney: 0.36
  Inflammation to tissue concentration ratio: Liver: 0.33
  Inflammation to tissue concentration ratio: Lung: 2.23
  Inflammation to tissue concentration ratio: Muscle: 25.15
  Inflammation to tissue concentration ratio: Spleen: 0.68
[3]
  Inflammation to tissue concentration ratio: Blood: 21.61 ± 6.47
  Inflammation to tissue concentration ratio: Heart: 7.49 ± 3.37
  Inflammation to tissue concentration ratio: Kidney: 5.04 ± 6.35
  Inflammation to tissue concentration ratio: Liver: 0.69 ± 0.17
  Inflammation to tissue concentration ratio: Lung: 5.41 ± 0.71
  Inflammation to tissue concentration ratio: Muscle: 12.81 ± 4.61
  Inflammation to tissue concentration ratio: Spleen: 0.64 ± 0.11

## CCC1=C(C)c2cc3[nH]c(cc4nc(c5c6[nH]c(cc1n2)c(C)c6C(=O)C5C(=O)OCCOC(=O)C1C(=O)c2c(C)c5cc6nc(cc7[nH]c(cc8nc(c1c2[nH]5)C(CCC(=O)O)C8C)c(C)c7C(C)I)C(C)=C6CC)C(CCC(=O)O)C4C)c(C)c3C(C)I (centres unmarked) [I2 PPB Dimer, Bis[2-desethenyl-2-(1-iodoethyl)pheophobide]ethylene glycol diester]
[6]
  excited fluorescence at 600 to 900 nm relative to NADH peak at 470 nm (=1): Cancer: 0.82
  excited fluorescence at 600 to 900 nm relative to NADH peak at 470 nm (=1): Kidney: 0.07
  excited fluorescence at 600 to 900 nm relative to NADH peak at 470 nm (=1): Liver: 0.31
  excited fluorescence at 600 to 900 nm relative to NADH peak at 470 nm (=1): Lung: 0.20
  excited fluorescence at 600 to 900 nm relative to NADH peak at 470 nm (=1): Serum: 1.58
